Results from patent publication US4172145A, “Benzo(b)furylacetic acid derivatives to reduce inflammation” (priority 1975, dated 1979).
Where two headings read alike, the source gives them in different places.

Columns and labels:
[1] = test system: pain threshold of inflamed and not inflamed paws of rats; assay: Analgesic activity in rats (Randall-Selitto Method); format: in vivo, rat (male Wister strain); conditions: Rattus norvegicus, po, read-out: Analgesic Coefficient; for change in vivo at 150 mg/kg: P.O. 150 mg/kg
Method: A group consisting of 6-7 rats (male Wister strain; weight: 100-120 g) was used for the test and control groups in this test. Each rat of both groups was treated with 0.1 ml of a 1% carrageenin solution as phlogistic agent by subcutaneous injection in one hind paw. 3 hours after the administration, pressure was applied to the treated paw of each rat by means of a pressing device (manufactured by Ugobasile S. A., Italy). The threshold of pain induced by press was measured with reference to the shriek and struggle according to the method of Randall and Selitto [Randall, L. O. and Selitto, J. J.; Arch, Int. Pharmocodyn., 111, 409 (1957)]. From each group 5 rats having a good response reaction, i.e. the pain threshold was not more than 70 g, were respectively selected. […] 1, 2 and 3 hours after administration, pressure was again applied to both the inflamed and not inflamed paws of the test rats and the pain threshold was measured. On the other hand, without the administration of the active compound, the pressure was applied to both the inflamed and not inflamed paws of the selected 5 rats of the control group and the pain threshold was measured. The inflamed paws of the test and control groups were compared with each other. Also the not inflamed paws of the both groups were compared with each other.
The analgesic coefficient was calculated by means of the following equation, and the larger analgesic coefficient the better analgesic activity. [formula] in which X: analgesic coefficient (%)
P1 : threshold (g) of the test rats administered with active compounds
P2 : threshold (g) of the control rats without administration of active compound

[2] = test system: carrageenin-induced edema on the hind paw of rats; assay: Anti-edema effect on carrageenin-induced edema on the hind paw of rats (Carrageenin Edema Method); format: in vivo, rat (male Wistar strain); conditions: rat, oral, 3 hours after carrageenin
Method: The anti-edema effect was determined according to the method of Yamazaki et al [Yamazaki, H., et al; Folia Pharmacologica Japonica, 63, 302 (1967)].
In this test, a group consisting of five rats (male Wistar strain: weight 100-120 g) was used for the test and control groups. The compounds shown in Table 2 were administered orally to the rats of the test group. After one hour, 0.1 ml of a 1% carrageenin solution (phlogistic agent) was further administered to each rat by subcutaneous injection in one hind paw. To each rat of the control group, 0.1 ml of a 1% carrageenin solution was also administered in a similar manner to that for test rats. 1, 3 and 5 hours after administration of the phlogistic agent, the swelling ratio was calculated by means of the following equation: […]
Test group [formula] in which b: swelling ratio
B: volume of a hind paw without administration of phlogistic agent
B': volume of a hind paw administered with phlogistic agent
Control group [formula] in which a: swelling ratio
A: volume of a hind paw without administration of phlogistic agent
A': volume of a hind paw administered with phlogistic agent
The anti-edema effect was expressed as the suppression ratio of the edema in comparison with the control group to which the test compound had not been administered. The suppression ratio of the edema was determined 3 hours after administration of the phlogistic agent and was calculated by means of the following equation: [formula] in which a and b are as hereinbefore defined.

in vivo [3] = conditions: rat, po
Method: A test group consisting of 10-15 rats (male Wistar strain; weight: 180-220 g) was used in this test. Each rat was fasted for 20 hours, but water was allowed ad libitum. The compounds shown in Table 5 were administered orally. After a 20-hour interval during which the rats were not fed but were allowed water, each rat was administered under ether anesthesia with 0.5 ml per 100 g body weight of a 5% solution of pontamine sky blue 6BX in saline (pH 7.2--adjusted with 0.5 N HCl) by intravenous injection. 15 minutes after administration each rat was killed. The stomach was removed and maintained in a 1% formalin solution. After about 2 hours, the stomach was opened along the greater curvature and the length of lesions (dark blue areas against pale blue background) in the glandular portion was measured under a dissecting microscope (10×) provided with a square grid. The sum of the lengths (mm) of lesions was used as ulcer index.

[4] = test system: acetic acid-induced writhing reactions in mice; assay: Analgesic activity in mice (AcOH Writhing Method); format: in vivo, mouse (male dd-strain); conditions: mouse, oral; for ED50: read-out: Analgesic Effect (AcOH Writhing Method), ED50
Method: In this test, three groups, each consisting of 10 mice (male dd-strain; weight: 19-21 g) were used. The compounds shown in Table 3 were administered orally to the test mice. One hour after the administration, the mice were treated with 0.1 ml/10 g of 0.7% acetic acid solution in physiological saline by intraperitoneal injection according to the method of Koster et al [Koster, R., et al; Fed. Proc., 18, 412 (1959)]. Ten minutes after the treatment, the number of writhing reactions occurring in the mice was counted.

in vivo [5] = conditions: oral, observed one week, Litchfield and Wilcoxon
Method: In this test, five groups, each consisting of 5 mice (male dd strain; weight: 19-21 g) and 5 rats (male Wistar strain; weight: 100-120 g) were used. […] The LD50 was calculated according to the method of Litchfield and Wilcoxon [Journal of Pharmacol. and Exper. Therap.

[6] = read-out: Anti-edema Effect, Suppression Ratio
[7] = 1 h before acetic acid, read-out: Analgesic Effect (AcOH Writhing Method), Suppression Ratio
[8] = mouse, read-out: Acute Toxicity (P.O.), LD50, Mouse
[9] = rat, read-out: Acute Toxicity (P.O.), LD50, Rat

Row | SMILES | change in vivo at 150 mg/kg ([1]; 1 h, inflamed paw, 1 hr.) [%] | change in vivo at 150 mg/kg ([1]; 1 h, not inflamed paw, 1 hr.) [%] | change in vivo at 150 mg/kg ([1]; 2 h, inflamed paw, 2 hr.) [%] | change in vivo at 150 mg/kg ([1]; 2 h, not inflamed paw, 2 hr.) [%] | change in vivo at 150 mg/kg ([1]; 3 h, inflamed paw, 3 hr.) [%] | change in vivo at 150 mg/kg ([1]; 3 h, not inflamed paw, 3 hr.) [%] | inhibition in vivo at 150 mg/kg [2, 6] [%] | TD50 at 20 h (in vivo [3]) [mg/kg] | inhibition in vivo at 150 mg/kg [4, 7] [%] | inhibition in vivo at 75 mg/kg [2, 6] [%] | inhibition in vivo at 300 mg/kg [2, 6] [%] | ED50 [2] [mg/kg] | inhibition in vivo at 300 mg/kg [4, 7] [%] | ED50 [4] [mg/kg] | LD50 at 168 h (in vivo [5]; [8]) [mg/kg] | LD50 at 168 h (in vivo [5]; [9]) [mg/kg] | other results
1 | CC(C)Cc1ccc(C(C)C(=O)O)cc1 (stereo not shown) [Ibuprofen, reference compound] | 20.9 | 0.5 | 28.8 | 5.5 | 23.3 | 4.2 | 45.3 | 46 | 57.2 | – | – | – | – | – | – | – | –
2 | CCCCC1C(=O)N(c2ccccc2)N(c2ccccc2)C1=O [Phenylbutazone, reference compound] | – | – | – | – | – | – | – | 76 | – | – | – | – | – | – | – | – | change in vivo at 100 mg/kg ([1]; 1 h, P.O. 100 mg/kg (** on upper line only), not inflamed paw, 1 hr.): 3.8%; change in vivo at 100 mg/kg ([1]; 1 h, P.O. 100 mg/kg, inflamed paw, 1 hr.): 20.7%; change in vivo at 100 mg/kg ([1]; 2 h, P.O. 100 mg/kg (** on upper line only), not inflamed paw, 2 hr.): 5.4%; change in vivo at 100 mg/kg ([1]; 2 h, P.O. 100 mg/kg, inflamed paw, 2 hr.): 23.2%; change in vivo at 100 mg/kg ([1]; 3 h, P.O. 100 mg/kg (** on upper line only), not inflamed paw, 3 hr.): 2%; change in vivo at 100 mg/kg ([1]; 3 h, P.O. 100 mg/kg, inflamed paw, 3 hr.): 27.7%; inhibition in vivo at 100 mg/kg ([2]; 100 mg/kg (footnote *; printed in 75 mg/kg column), read-out: Anti-edema Effect, Suppression Ratio): 42.6%; inhibition in vivo at 200 mg/kg ([2]; 200 mg/kg (footnote **; printed in 150 mg/kg column), read-out: Anti-edema Effect, Suppression Ratio): 53.5%; inhibition in vivo at 100 mg/kg ([4]; 100 mg/kg (footnote *; printed in 75 mg/kg column), read-out: Analgesic Effect (AcOH Writhing Method), Suppression Ratio): 20.8%; inhibition in vivo at 200 mg/kg ([4]; 200 mg/kg (footnote **; printed in 150 mg/kg column), read-out: Analgesic Effect (AcOH Writhing Method), Suppression Ratio): 28.2%
3 | Cc1c(CC(=O)O)oc2ccccc12 [Test Compound 1, 3-methyl-2-benzo(b)furylacetic acid] | 13.8 | 0.4 | 5.9 | 1.7 | 4.2 | 0 | 41.2 | – | 42.9 | 25.3 | 54.2 | 240 | 70.9 | 170 | > 1100 | > 300 | inhibition in vivo at 75 mg/kg ([4]; 75 mg/kg, 1 h before acetic acid, read-out: Analgesic Effect (AcOH Writhing Method), Suppression Ratio): 21.7%
4 | Cc1c(CC(=O)O)oc2ccc(Cl)cc12 [Test Compound 2, 5-chloro-3-methyl-2-benzo(b)furylacetic acid] | 25.1 | 0.5 | 17.8 | 1.3 | 16.3 | 2.4 | 63.3 | 230 | 35.9 | 45.7 | 74.2 | 980 | 68.8 | 190 | 800 | 425 | –
5 | COc1ccc2oc(CC(=O)O)c(C)c2c1 [Test Compound 3, 5-methoxy-3-methyl-2-benzo(b)furylacetic acid] | 24.1 | 1.9 | 5.2 | 0 | 0 | 0 | 60.8 | > 300 | 20.8 | 34.5 | 73.1 | 110 | 53.6 | 280 | 1110 | > 1000 | –
6 | Cc1c(CC(=O)O)oc2ccc(C(C)(C)C)cc12 [Test Compound 6, 5-tert-butyl-3-methyl-2-benzo(b)furylacetic acid] | 19.5 | 6 | 17.8 | 0.8 | 14.4 | 1.3 | 39.9 | – | 23.7 | – | – | – | – | – | > 1000 | > 300 | –
7 | Cc1c(CC(=O)O)oc2ccc(-c3ccccc3)cc12 [Test Compound 7, 5-phenyl-3-methyl-2-benzo(b)furylacetic acid] | 37.2 | 8 | 23.3 | 2.4 | 11.3 | 4.7 | 63.9 | – | 20.9 | 52.7 | 73.3 | 70 | 77.6 | – | 500 to 1000 | > 300 | –
8 | Cc1c(CC(=O)O)oc2ccc(Cc3ccccc3)cc12 [Test Compound 8, 5-benzyl-3-methyl-2-benzo(b)furylacetic acid] | 23.1 | 1.7 | 24.7 | 0.7 | 29.5 | 6.1 | 31.1 | – | 30.5 | – | – | – | 55.6 | – | 500 to 1000 | > 300 | –
9 | Cc1c(CC(=O)O)oc2ccc(C3CCCCC3)cc12 [Test Compound 9, 5-cyclohexyl-3-methyl-2-benzo(b)furylacetic acid] | 0 | 0 | 2 | 0 | 32 | 17.2 | 28 | – | – | – | – | – | – | – | > 1000 | > 150 | –
